Reference: patent publication US11155517B2, “4-substituted phenylamine derivatives and their use to protect crops by fighting undesired phytopathogenic micoorganisms” (PI INDUSTRIES LTD., priority 2016, dated 2021)

Key:
[1] = system: Pyricularia oryzae; experiment: microbe, parasite or virus in culture; type: cell-based; settings: 168 h, read-out: % control compared to the untreated check (radial growth)
[2] = system: Rhizoctonia solani; experiment: Rhizoctonia solani (rice sheath blight/potato black scurf) in vitro test, radial growth on Potato Dextrose Agar; type: cell-based; settings: 168 h, 300 ppm, seven days, 25° C., read-out: % control compared to the untreated check (radial growth)
[3] = system: Botrytis cinera; experiment: Greenhouse Botrytis cinera test in tomato, preventive; type: in vivo; settings: 24 h, plants sprayed one day before inoculation, read-out: Efficacy (% control), disease severity vs untreated check
[4] = system: Septoria lycopersici; experiment: Septoria lycopersici (leaf spot of tomato) in vitro test, radial growth on Potato Dextrose Agar; type: cell-based; settings: 168 h, seven days, 25° C., read-out: % control compared to the untreated check (radial growth)
[5] = system: Colletotrichum capsici; experiment: Colletotrichum capsici (anthracnose) in vitro test, radial growth on Potato Dextrose Agar; type: cell-based; settings: Colletotrichum truncatum, 168 h; 300 ppm; seven days, 25° C.; read-out: % control compared to the untreated check (radial growth)
[6] = system: Botrytis cinerea; experiment: Botrytis cinerea (gray mold) in vitro test, radial growth on Potato Dextrose Agar; type: cell-based; settings: 168 h, 300 ppm, seven days, 22° C., read-out: % (control) compared to the untreated check (radial growth)
[7] = system: Alternaria solani; experiment: Alternaria solani (early blight of tomato/potato) in vitro test, radial growth on Potato Dextrose Agar; type: cell-based; settings: 168 h, 300 ppm, seven days, 25° C., read-out: % control compared to the untreated check (radial growth)
[8] = system: Fusarium culmorum; experiment: Fusarium culmorum (foot rot of cereals) in vitro test, radial growth on Potato Dextrose Agar; type: cell-based; settings: Fusarium culmorum, 168 h, read-out: % control compared to the untreated check (radial growth)

Compound	inhibition of growth at 300 ppm [1]	inhibition of growth at 300 ppm [2]	pest or weed control at 500 ppm [3]	inhibition of growth at 300 ppm [4]	inhibition of growth at 300 ppm [5]	inhibition of growth at 300 ppm [6]	inhibition of growth at 300 ppm [7]	inhibition of growth at 300 ppm [8]
CCN(C)C=Nc1cc(C)c(Cc2cc(Cl)cc(Cl)c2)cc1C [Compound 3, N′-(4-(3,5-dichlorobenzyl)-2,5-dimethylphenyl)-N-ethyl-N-methylformimidamide]	> 75%	> 80%	70 to 100%	> 70%	> 80%	> 80%	> 75%	
CCN(C)C=Nc1cc(C)c(Cc2ccc(Br)cc2)cc1C [Compound 4, N′-(4-(4-bromobenzyl)-2,5-dimethylphenyl)-N-ethyl-N-methylformimidamide]	> 75%	> 80%	70 to 100%	> 70%	> 80%	> 80%	> 75%	75%
CCN(C)C=Nc1cc(C)c(Cc2ccc(Cl)c(Cl)c2)cc1C [Compound 5, N′-(4-(3,4-dichlorobenzyl)-2,5-dimethylphenyl)-N-ethyl-N-methylformimidamide]	> 75%	> 80%	70 to 100%	> 70%	> 80%	> 80%	> 75%	75%
CCN(C)C=Nc1cc(C)c(Cc2cccc(C)c2)cc1C [Compound 6, N′-(2,5-dimethyl-4-(3-methylbenzyl)phenyl)-N-ethyl-N-methylformimidamide]	> 75%	> 80%	70 to 100%	> 70%	> 80%	> 80%	> 75%	75%
CCN(C)C=Nc1c(C)cc(Cc2ccc(Br)cc2)c(C)c1Br [Compound 10, N′-(2-bromo-4-(4-bromobenzyl)-3,6-dimethylphenyl)-N-ethyl-N-methylformimidamide]	> 75%	> 80%	70 to 100%		> 80%	> 80%	> 75%	
CCN(C)C=Nc1cc(C)c(Cc2cccc(Cl)c2)cc1C [Compound 11, N′-(4-(3-chlorobenzyl)-2,5-dimethylphenyl)-N-ethyl-N-methylformimidamide]	> 75%	> 80%	70 to 100%		> 80%	> 80%	> 75%	75%
CCN(C)C=Nc1cc(C)c(Cc2cccc(Br)c2)cc1C [Compound 14, N′-(4-(3-bromobenzyl)-2,5-dimethylphenyl)-N-ethyl-N-methylformimidamide]	> 75%	> 80%	70 to 100%	> 70%	> 80%	> 80%	> 75%	75%
CCN(C)C=Nc1cc(C)c(Cc2ccccc2[S+](C)[O-])cc1C (stereo not shown) [Compound 24, N′-(2,5-dimethyl-4-(2-(methylsulfinyl)benzyl)phenyl)-N-ethyl-N-methylformimidamide]	> 75%	> 80%	70 to 100%	> 70%			> 75%	
CCN(C)C=Nc1cc(C)c(Cc2cccc(C)c2)cc1Cl [Compound 43, N′-(2-chloro-5-methyl-4-(3-methylbenzyl)phenyl)-N-ethyl-N-methylformimidamide]	> 75%	> 80%	70 to 100%	> 70%	> 80%	> 80%	> 75%	75%
Cc1cc(N=CN2CCCCC2)c(C)cc1Cc1ccccc1Cl [Compound 59, N-(4-(2-chlorobenzyl)-2,5-dimethylphenyl)-1-(piperidin-1-yl)methanimine]	> 75%	> 80%	70 to 100%	> 70%	> 80%	> 80%	> 75%	75%
Cc1cc(N=CN(C#N)CC#N)c(C)cc1Cc1ccccc1Cl [Compound 90, N′-(4-(2-chlorobenzyl)-2,5-dimethylphenyl)-N-cyano-N-(cyanomethyl)formimidamide]			70 to 100%					
CCN(C)C=Nc1cc(C)c(Cc2ccccc2OC(F)(F)F)cc1Cl [Compound 102, N′-(2-chloro-5-methyl-4-(2-(trifluoromethoxy)benzyl)phenyl)-N-ethyl-N-methylformimidamide]	> 75%	> 80%	70 to 100%	> 70%	> 80%	> 80%	> 75%	
CCN(C)C=Nc1cc(C)c(Cc2ccc(C)c(C(F)(F)F)c2)cc1C [Compound 104, N′-(2,5-dimethyl-4-(4-methyl-3-(trifluoromethyl)benzyl)phenyl)-N-ethyl-N-methylformimidamide]	> 75%	> 80%	70 to 100%	> 70%	> 80%	> 80%	> 75%	75%
CCN(C)C=Nc1cc(C)c(Cc2ccc(Cl)c(F)c2)cc1C [Compound 105, N′-(4-(4-chloro-3-fluorobenzyl)-2,5-dimethylphenyl)-N-ethyl-N-methylformimidamide]	> 75%	> 80%	70 to 100%	> 70%	> 80%	> 80%	> 75%	75%
CCN(C)C=Nc1cc(C)c(Cc2cc(Cl)ccc2Cl)cc1Cl [Compound 166, N′-(2-chloro-4-(2,5-dichlorobenzyl)-5-methylphenyl)-N-ethyl-N-methylformimidamide]	> 75%	> 80%	70 to 100%	> 70%	> 80%	> 80%	> 75%	
CCN(C)C=Nc1cc(C)c(Cc2c(F)cccc2Cl)cc1Cl [Compound 184, N′-(2-chloro-4-(2-chloro-6-fluorobenzyl)-5-methylphenyl)-N-ethyl-N-methylformimidamide]	> 75%	> 80%	70 to 100%		> 80%	> 80%	> 75%	
CCN(C)C=Nc1cc(Cl)c(Cc2cccc(Cl)c2)cc1C [Compound 258, N′-(5-chloro-4-(3-chlorobenzyl)-2-methylphenyl)-N-ethyl-N-methylformimidamide]	> 75%	> 80%		> 70%	> 80%	> 80%	> 75%	75%
CCN(C)C=Nc1cc(Cl)c(Cc2cccc(F)c2)cc1C [Compound 259, N′-(5-chloro-4-(3-fluorobenzyl)-2-methylphenyl)-N-ethyl-N-methylformimidamide]	> 75%	> 80%		> 70%	> 80%	> 80%	> 75%	75%
CCN(C)C=Nc1cc(Cl)c(Cc2ccc(C)cc2)cc1C [Compound 261, N′-(5-chloro-2-methyl-4-(4-methylbenzyl)phenyl)-N-ethyl-N-methylformimidamide]	> 75%	> 80%		> 70%	> 80%	> 80%	> 75%	75%
CCN(C)C=Nc1cc(C(F)(F)F)c(Cc2ccccc2Cl)cc1C1CC1 [Compound 262, N′-(4-(2-chlorobenzyl)-2-cyclopropyl-5-(trifluoromethyl)phenyl)-N-ethyl-N-methylformimidamide]	> 75%	> 80%		> 70%	> 80%	> 80%	> 75%	75%
CCN(C)C=Nc1cc(C(F)(F)F)c(Cc2cccc(C)c2)cc1C1CC1 [Compound 263, N′-(2-cyclopropyl-4-(3-methylbenzyl)-5-(trifluoromethyl)phenyl)-N-ethyl-N-methylformimidamide]	> 75%	> 80%		> 70%	> 80%	> 80%	> 75%	75%
